Assay results taken from paper PMC8522729 (Antimicrobial Agents and Chemotherapy, 2021).
Converted amounts (≈) assume the structure as drawn. Read-outs that look alike come from different tables or passages of the source.

Key:
[1] = cited from earlier work
M. tuberculosis H37Rv [2] = tested on: M. tuberculosis H37Rv; parameters: method as in PMID 19299584; conditions: cited from earlier work
[3] = cited from earlier work; remark: listed apart in the source
M. tuberculosis Kurono = tested on: M. tuberculosis Kurono; parameters: method as in PMID 32229496; conditions: chronic ICR mouse model, cited from earlier work
M. tuberculosis [4] = conditions: QD, cited from earlier work
[5] = Plasma, lung and lesion drug levels (LC-MS/MS and LCM-LC-MS/MS)
[6] = C3HeB/FeJ, mouse, in vivo
[7] = tested on: M. tuberculosis Erdman-infected C3HeB/FeJ mice; assay: Efficacy in the C3HeB/FeJ mouse tuberculosis model (CFU in lungs and spleens, kill rates); type: in vivo; conditions: for dose at which maximal efficacy in spleens was achieved / LME (lowest dose with the maximum effect) in lungs: 8 weeks of treatment, OPC-167832 QD; for dose at which maximal efficacy in spleens was achieved: TBA-7371 BID (not yet achieved); for LME (lowest dose with the maximum effect) in lungs: TBA-7371 BID, PBTZ169 QD; for average lung CFU reduction compared to untreated controls: 5 of 7 days per week; for CFU reduction in spleen: spleens; for CFU reduction in spleen / effect on lung CFU compared to pretreatment control and untreated controls: 4 weeks of treatment, all doses; for effect on lung CFU compared to pretreatment control and untreated controls: P > 0.05
M. tuberculosis Erdman = assay: MIC by broth microdilution (MABA), with and without 4% huSA (serum-shift assay); conditions: for Serum shift (fold increase): M. tuberculosis Erdman, MIC with 4% huSA vs without; for protein binding by this assay (MIC shift): indicated by 8-fold MIC shift with 4% huSA
[8] = tested on: nonreplicating bacteria in rabbit caseum; assay: Caseum MBC assay; type: cell-based, Mycobacterium tuberculosis; conditions: 7 days
M. tuberculosis [9] = conditions: chronic BALB/c mouse model, cited from earlier work
[10] = tested on: pulmonary pathology of M. tuberculosis-infected C3HeB/FeJ mice; assay: Pulmonary histopathology (pathologist scoring and LIRA); type: in vivo; conditions: 100 mg/kg QD, 8 weeks
M. tuberculosis [11] = conditions: cited from earlier work
M. tuberculosis H37Rv [12] = assay: MIC by broth microdilution (MABA), with and without 4% huSA (serum-shift assay); conditions: MIC with 4% huSA vs without
M. tuberculosis [13] = tested on: M. tuberculosis; parameters: method as in PMID 24957839, PMID 24215368, PMID 24874895; conditions: acute BALB/c mouse model; 100 mg/kg QD; cited from earlier work
[14] = C3HeB/FeJ, mouse, in vivo, 5 mg/kg
[15] = lungs, 8 weeks, all three OPC-167832 groups, TBA-7371 medium and high dose, PBTZ169 medium and high dose, P < 0.05 Dunnett

Compound: C[C@H]1COC2(CCN(c3nc(=O)c4cc(C(F)(F)F)cc([N+](=O)[O-])c4s3)CC2)O1 [BTZ043]
- selectivity index [1]: > 10,000
- MIC (M. tuberculosis H37Rv [2]): 0.001 µg/mL (≈ 0.00232 µM)
- plasma protein binding [3]: > 99.8%

Compound: O=C1CCc2c(OC[C@]3(O)CCN(c4c(F)cc(Cl)cc4F)C[C@H]3O)ccc(F)c2N1 [OPC-167832]
- CFU reduction in lungs versus the start of treatment (M. tuberculosis Kurono; 5 mg/kg for 4 weeks): > 1.5 log10 CFU
- dose showing bactericidal activity (M. tuberculosis Kurono): 0.625 mg/kg
- MED99 (minimal effective dose giving 2-log reduction in lung bacterial load vs untreated) (M. tuberculosis [4]): 5 mg/kg
- drug level in caseous core / cellular-caseum interface at plasma Cmax, fold in excess of the MIC+huSA ([5]; 5 mg/kg QD, 2.5 weeks): approximately 21 fold
- Cmax at 1 h [5, 14]: 35 ng/g
- concentration at 1 h [5, 14]: 190 ng/g
- concentration at 24 h [5, 14]: 34 to 108 ng/g
- concentration in caseum (acellular) at T1, fold above the MIC+huSA ([6]; 1 h): 12 fold
- concentration in caseum at T1, fold in excess of the MIC+huSA ([6]; 1 h): 20 fold
- plasma and lung concentration at T1, fold above the MIC+huSA ([6]; 1 h): 75-85 fold
- dose at which maximal efficacy in spleens was achieved [7]: 5 mg/kg
- LME (lowest dose with the maximum effect) in lungs [7]: 5 mg/kg
- average lung CFU reduction compared to untreated controls ([7]; 8 weeks, 5 and 20 mg/kg QD): 3 log10 CFU
- efficacy in lungs versus the pretreatment control group ([7]; lungs, 4 weeks, 20 mg/kg QD, P = 0.04 Dunnett): statistically significant efficacy
- lung bacterial load compared to the untreated control group ([7]; lungs, 4 weeks, all three dose groups (1.25, 5, 20 mg/kg QD), P = 0.002 to 0.03 Dunnett): statistically significant reduction in lung bacterial load
- lung bacterial load compared to the untreated control group [7, 15]: statistical significant reduction in the lung bacterial load
- CFU reduction in spleen [7]: dose-dependent CFU reduction
- Serum shift (fold increase) (M. tuberculosis Erdman): 8 fold
- protein binding by this assay (MIC shift) (M. tuberculosis Erdman): ~88%
- MBC ([8]; Mycobacterium tuberculosis, 168 h, rabbit caseum, read-out: caseum MBC90): 500 µg/mL (≈ 1090 µM)
- reduction from treatment start in caseum ([8]; highest concentration tested (1 mg/ml), P = 0.0005): 1 log

Compound: O=c1nc(N2CCN(CC3CCCCC3)CC2)sc2c([N+](=O)[O-])cc(C(F)(F)F)cc12 [PBTZ169, macozinone]
- selectivity index [1]: > 10,000
- CFU reduction in lungs versus untreated controls (M. tuberculosis [9]; after 4 weeks of treatment): 1 log10 CFU
- additional CFU reduction in lungs versus BTZ043 (M. tuberculosis [9]): 0.5 log10 CFU
- additional CFU reduction in spleens versus BTZ043 (M. tuberculosis [9]): 1 log10 CFU
- MED99 (minimal effective dose giving 2-log reduction in lung bacterial load vs untreated) (M. tuberculosis [4]; published or reported mouse infection studies, no reference given): 50 mg/kg
- Cmax in the cellular-caseum interface and caseum, fold lower than plasma or whole lung Cmax ([5]; 50 mg/kg QD, 2.5 weeks): 10 fold
- concentration in plasma and lungs at T1 (Cmax) ([5]; 50 mg/kg QD, 2.5 weeks, T1 15 min): around 1 μg/ml or μg/g
- plasma and lung concentration at T1, fold above the MIC+huSA ([6]; 15 min): 11-20 fold
- type III cellular lesions, lung involvement (LIRA) [10]: more than 35%
- type III lesion lung involvement relative to untreated control group (LIRA) [10]: more than 2 fold
- MIC fold lower versus BTZ043 (M. tuberculosis [11]): 3 fold
- LME (lowest dose with the maximum effect) in lungs [7]: 50 mg/kg
- average lung CFU reduction compared to untreated controls ([7]; 8 weeks, 50 and 100 mg/kg QD): 1.5 log10 CFU
- effect on lung CFU compared to pretreatment control and untreated controls ([7]; lungs): not statistically significant
- lung bacterial load compared to the untreated control group [7, 15]: statistical significant reduction in the lung bacterial load
- CFU reduction in spleen [7]: no statistically significant CFU reduction
- Serum shift (fold increase) (M. tuberculosis Erdman): 8 fold
- protein binding by this assay (MIC shift) (M. tuberculosis Erdman): ~88%

Compound: O=[N+]([O-])c1cn2c(n1)OC[C@@H](OCc1ccc(OC(F)(F)F)cc1)C2 [Pretomanid, pretomanid]
- Serum shift (fold increase) (M. tuberculosis Erdman): 4 fold
- Serum shift (fold increase) (M. tuberculosis H37Rv [12]): 4 fold

Compound: COc1ncnc(Cn2cc(C(=O)NCCO)c3ncc(C)cc32)c1C [TBA-7371]
- CFU reduction in lungs compared to untreated controls (M. tuberculosis [13]): more than 2 log10 CFU
- CFU reduction in lungs (M. tuberculosis [9]; 100 mg/kg QD): 1.5 log10 CFU
- MED99 (minimal effective dose giving 2-log reduction in lung bacterial load vs untreated) (M. tuberculosis [4]): 100 mg/kg
- Cmax ([5]; C3HeB/FeJ, mouse, in vivo, 100 mg/kg): ~8600 ng/g
- MIC (M. tuberculosis [11]): 0.64 µg/mL (≈ 1.8 µM)
- dose at which maximal efficacy in spleens was achieved [7]: ≥ 200 mg/kg
- LME (lowest dose with the maximum effect) in lungs [7]: 100 mg/kg
- average lung CFU reduction compared to untreated controls ([7]; 8 weeks, 100 and 200 mg/kg BID): 1.5 log10 CFU
- effect on lung CFU compared to pretreatment control and untreated controls ([7]; lungs): not statistically significant
- lung bacterial load compared to the untreated control group [7, 15]: statistical significant reduction in the lung bacterial load
- CFU reduction in spleen [7]: dose-dependent CFU reduction
